Target: Beta-secretase 1 (Homo sapiens, UniProt P56817)
Experiment: Inhibition of human Beta-secretase 1

Sequence of Beta-secretase 1 (P56817 whole entry): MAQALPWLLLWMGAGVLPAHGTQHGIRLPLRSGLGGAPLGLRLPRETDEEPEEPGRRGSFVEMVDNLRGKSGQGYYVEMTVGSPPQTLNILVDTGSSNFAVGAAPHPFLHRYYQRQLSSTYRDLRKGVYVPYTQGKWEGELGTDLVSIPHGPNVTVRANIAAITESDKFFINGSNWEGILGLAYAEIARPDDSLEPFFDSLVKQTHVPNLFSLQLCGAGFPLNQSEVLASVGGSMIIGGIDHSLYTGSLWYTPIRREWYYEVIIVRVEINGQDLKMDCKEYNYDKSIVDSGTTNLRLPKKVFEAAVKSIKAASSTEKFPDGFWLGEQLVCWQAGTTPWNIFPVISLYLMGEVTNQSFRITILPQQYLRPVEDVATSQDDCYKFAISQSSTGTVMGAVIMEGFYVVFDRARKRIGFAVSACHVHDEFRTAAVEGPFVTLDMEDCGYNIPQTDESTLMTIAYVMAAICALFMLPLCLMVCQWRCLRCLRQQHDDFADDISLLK

First: CCC(C)C[C@H](NC(=O)[C@H](CC(C)C)NC(C)=O)[C@@H](O)CC(=O)NC(CCSC)[C@@H](O)CC(=O)N[C@H](C(=O)NCc1ccc(C(=O)O)cc1)C(C)C (some centres not stated)
Second: CCC(C)C[C@H](NC(=O)[C@H](CC(C)C)NC(C)=O)[C@@H](O)CC(=O)NC(CC[S+](C)[O-])[C@@H](O)CC(=O)N[C@H](C(=O)NCc1ccc(C(=O)O)cc1)C(C)C (some centres not stated)
The IC50 of the first is 74-fold lower: 460 nM for the first, 34000 nM for the second.

First: CC(=O)N[C@@H](CCC(=O)O)C(=O)N[C@@H](Cc1ccccc1)[C@@H](O)CC(=O)N[C@@H](CC1CCCCC1)[C@@H](O)CC(=O)N[C@H](C(=O)NCc1ccc(C(=O)O)cc1)C(C)C
Second: CC(=O)N[C@@H](CC(C)C)C(=O)N[C@@H](Cc1ccccc1)[C@@H](O)CC(=O)N[C@@H](CC1CCCCC1)[C@@H](O)CC(=O)N[C@H](C(=O)NCc1ccc(C(=O)O)cc1)C(C)C (stereo in doubt; 13)
The IC50 of the first is 840-fold higher: 42000 nM for the first, 50 nM for the second. The second is the more potent here.

First: CCC(C)C[C@H](NC(=O)[C@H](CC(C)C)NC(C)=O)[C@@H](O)CC(=O)N[C@@H](Cc1ccccc1)[C@@H](O)CC(=O)N[C@H](C(=O)NCc1ccc(C(=O)O)cc1)C(C)C (some centres not stated)
Second: CCC(C)C[C@H](NC(=O)C[C@H](O)[C@H](Cc1ccccc1)NC(=O)[C@H](CC(C)C)NC(C)=O)[C@@H](O)CC(=O)N[C@H](C(=O)NCc1ccc(C(=O)O)cc1)C(C)C (some centres not stated)
The IC50 of the first is 31-fold lower: 21 nM for the first, 650 nM for the second.

First: CC(C)[C@H](NC(=O)C[C@H](O)[C@H](CC1CCCCC1)NC(=O)C[C@H](O)[C@H](Cc1ccccc1)NC(=O)OC(C)(C)C)C(=O)NCc1ccc(C(=O)O)cc1
Second: CC(=O)NCC(=O)N[C@@H](Cc1ccccc1)[C@@H](O)CC(=O)N[C@@H](CC1CCCCC1)[C@@H](O)CC(=O)N[C@H](C(=O)NCc1ccc(C(=O)O)cc1)C(C)C
The IC50 of the first is higher: greater than 100000 nM for the first, 9000 nM for the second. The second is the more potent here.

First: CC(C)[C@H](NC(=O)C[C@H](O)[C@H](CC1CCCCC1)NC(=O)C[C@H](O)[C@H](Cc1ccccc1)NC(=O)[C@@H]1CCCN1)C(=O)NCc1ccc(C(=O)O)cc1
Second: CC(C)[C@H](NC(=O)C[C@H](O)[C@H](CC1CCCCC1)NC(=O)C[C@H](O)[C@@H](N)Cc1ccccc1)C(=O)NCc1ccc(C(=O)O)cc1
The IC50 of the first is lower: 1300 nM for the first, greater than 100000 nM for the second. The first is the more potent here.

Compared with `CC(=O)N[C@@H](CC(C)C)C(=O)N[C@@H](Cc1ccccc1)[C@@H](O)CC(=O)N[C@@H](CC1CCCCC1)[C@@H](O)CC(=O)N[C@H](C(=O)NCc1ccc(C(=O)O)cc1)C(C)C` (stereo in doubt; 15), `CC(=O)N[C@@H](Cc1ccccc1)C(=O)N[C@@H](Cc1ccccc1)[C@@H](O)CC(=O)N[C@@H](CC1CCCCC1)[C@@H](O)CC(=O)N[C@H](C(=O)NCc1ccc(C(=O)O)cc1)C(C)C` is 8.4-fold higher in IC50: 670 nM for the first, 5600 nM for the second. The first is the more potent here.
